Experimental data reported in ChEMBL document CHEMBL1201861, “Genomics of Drug Sensitity in Cancer screening data, Wellcome Trust Sanger Institute”.

Tests used:
Assay in all cases: cells
CW-2 = assay type: functional, cell-based, Homo sapiens; details: Homo sapiens, CW-2;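 note: growth inhibition of CW-2 cells, read out by a cell viability assay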
Description: SANGER: Inhibition of human CW-2 cell growth in a cell viability assay.

Calu-6 = assay type: functional, cell-based, Homo sapiens; details: Homo sapiens, Calu-6;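 note: growth of human Calu-6 cells, read out by a cell viability assay, IC50 marking inhibition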
Description: SANGER: Inhibition of human Calu-6 cell growth in a cell viability assay.

EW-11 = assay type: functional, cell-based, Homo sapiens; details: Homo sapiens, EW-11;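 note: growth inhibition of human EW-11 cells, measured with a cell viability assay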
Description: SANGER: Inhibition of human EW-11 cell growth in a cell viability assay.

GB-1 = assay type: functional, cell-based, Homo sapiens; details: Homo sapiens, GB-1;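 note: growth of GB-1 cells judged by a viability assay, IC50 marks the concentration inhibiting growth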
Description: SANGER: Inhibition of human GB-1 cell growth in a cell viability assay.

GCIY = assay type: functional, cell-based, Homo sapiens; details: Homo sapiens, GCIY;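 note: growth inhibition of the human GCIY cell line, read out by a cell viability assay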
Description: SANGER: Inhibition of human GCIY cell growth in a cell viability assay.

GT3TKB = assay type: functional, cell-based, Homo sapiens; details: Homo sapiens, GT3TKB;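 note: growth inhibition of the cell line, read out with a cell viability assay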
Description: SANGER: Inhibition of human GT3TKB cell growth in a cell viability assay.

HDLM-2 = assay type: functional, cell-based, Homo sapiens; details: Homo sapiens, HDLM-2;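 note: cell viability assay measuring suppression of HDLM-2 proliferation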
Description: SANGER: Inhibition of human HDLM-2 cell growth in a cell viability assay.

HOP-62 = assay type: functional, cell-based, Homo sapiens; details: Homo sapiens, HOP-62;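 note: cell growth inhibition determined with a viability assay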
Description: SANGER: Inhibition of human HOP-62 cell growth in a cell viability assay.

HT = assay type: functional, cell-based, Homo sapiens; details: Homo sapiens, HT
Description: SANGER: Inhibition of human HT cell growth in a cell viability assay.

JVM-3 = assay type: functional, cell-based, Homo sapiens; details: Homo sapiens, JVM-3;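 note: growth inhibition of human JVM-3 cells, read out with a cell viability assay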
Description: SANGER: Inhibition of human JVM-3 cell growth in a cell viability assay.

KARPAS-299 = assay type: functional, cell-based, Homo sapiens; details: Homo sapiens, KARPAS-299
Description: SANGER: Inhibition of human KARPAS-299 cell growth in a cell viability assay.

KINGS-1 = assay type: functional, cell-based, Homo sapiens; details: Homo sapiens, KINGS-1;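 note: cell viability assay measuring suppression of KINGS-1 cell growth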
Description: SANGER: Inhibition of human KINGS-1 cell growth in a cell viability assay.

KNS-81-FD = assay type: functional, cell-based, Homo sapiens; details: Homo sapiens, KNS-81-FD;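 note: growth inhibition of KNS-81-FD cells, read out with a cell viability assay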
Description: SANGER: Inhibition of human KNS-81-FD cell growth in a cell viability assay.

KY821 = assay type: functional, cell-based, Homo sapiens; details: Homo sapiens, KY821;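 note: growth inhibition of human KY821 cells, read out by a cell viability assay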
Description: SANGER: Inhibition of human KY821 cell growth in a cell viability assay.

LB1047-RCC = assay type: functional, cell-based, Homo sapiens; details: Homo sapiens, LB1047-RCC;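 note: inhibition of cell growth, determined with a cell viability assay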
Description: SANGER: Inhibition of human LB1047-RCC cell growth in a cell viability assay.

LB2241-RCC = assay type: functional, cell-based, Homo sapiens; details: Homo sapiens, LB2241-RCC;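 note: cell viability assay measuring how strongly the cultured human renal carcinoma line is prevented from growing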
Description: SANGER: Inhibition of human LB2241-RCC cell growth in a cell viability assay.

LB2518-MEL = assay type: functional, cell-based; details: Homo sapiens;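 note: growth inhibition of human LB2518-MEL cells, measured with a cell viability assay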
Description: SANGER: Inhibition of human LB2518-MEL cell growth in a cell viability assay.

LC-2-ad = assay type: functional, cell-based, Homo sapiens; details: Homo sapiens, LC-2-ad;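 note: growth inhibition of human LC-2-ad cells, read out with a cell viability assay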
Description: SANGER: Inhibition of human LC-2-ad cell growth in a cell viability assay.

LS-123 = assay type: functional, cell-based, Homo sapiens; details: Homo sapiens, LS-123
Description: SANGER: Inhibition of human LS-123 cell growth in a cell viability assay.

LU-134-A = assay type: functional, cell-based, Homo sapiens; details: Homo sapiens, LU-134-A
Description: SANGER: Inhibition of human LU-134-A cell growth in a cell viability assay.

MEG-01 = assay type: functional, cell-based, Homo sapiens; details: Homo sapiens, MEG-01;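 note: growth inhibition of MEG-01 cells, read out by a cell viability assay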
Description: SANGER: Inhibition of human MEG-01 cell growth in a cell viability assay.

MHH-NB-11 = assay type: functional, cell-based, Homo sapiens; details: Homo sapiens, MHH-NB-11;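 note: growth inhibition of human MHH-NB-11 cells, read out by a cell viability assay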
Description: SANGER: Inhibition of human MHH-NB-11 cell growth in a cell viability assay.

MHH-PREB-1 = assay type: functional, cell-based, Homo sapiens; details: Homo sapiens, MHH-PREB-1;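 note: cell viability assay measuring inhibition of proliferation of human MHH-PREB-1 cells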
Description: SANGER: Inhibition of human MHH-PREB-1 cell growth in a cell viability assay.

MS-1 = assay type: functional, cell-based, Homo sapiens; details: Homo sapiens, MS-1;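 note: growth inhibition of MS-1 cells, read out by cell viability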
Description: SANGER: Inhibition of human MS-1 cell growth in a cell viability assay.

MV4-11 = assay type: functional, cell-based, Homo sapiens, MV-4-11; details: Homo sapiens, MV4-11;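 note: cell viability readout measuring growth inhibition of human MV-4-11 cells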
Description: SANGER: Inhibition of human MV-4-11 cell growth in a cell viability assay.

NB6 = assay type: functional, cell-based, Homo sapiens; details: Homo sapiens, NB6;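 note: growth inhibition of NB6 cells, read out by a cell viability assay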
Description: SANGER: Inhibition of human NB6 cell growth in a cell viability assay.

NCI-H1355 = assay type: functional, cell-based, Homo sapiens; details: Homo sapiens, NCI-H1355;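 note: growth inhibition of human NCI-H1355 cells, read out by a cell viability assay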
Description: SANGER: Inhibition of human NCI-H1355 cell growth in a cell viability assay.

NCI-H1395 = assay type: functional, cell-based, Homo sapiens; details: Homo sapiens, NCI-H1395;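 note: cell viability assay read-out quantifying reduced proliferation of human NCI-H1395 cells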
Description: SANGER: Inhibition of human NCI-H1395 cell growth in a cell viability assay.

NCI-H209 = assay type: functional, cell-based, Homo sapiens; details: Homo sapiens, NCI-H209;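 note: growth inhibition of human NCI-H209 cells, measured by a cell viability assay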
Description: SANGER: Inhibition of human NCI-H209 cell growth in a cell viability assay.

NCI-H747 = assay type: functional, cell-based, Homo sapiens; details: Homo sapiens, NCI-H747;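 note: growth inhibition of human NCI-H747 cells, read out by a cell viability assay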
Description: SANGER: Inhibition of human NCI-H747 cell growth in a cell viability assay.

NTERA-2-cl-D1 = assay type: functional, cell-based, Homo sapiens; details: Homo sapiens, NTERA-2-cl-D1;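 note: inhibition of cell growth, measured with a cell viability assay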
Description: SANGER: Inhibition of human NTERA-S-cl-D1 cell growth in a cell viability assay.

OCI-AML2 = assay type: functional, cell-based, Homo sapiens; details: Homo sapiens, OCI-AML2;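 note: growth inhibition of OCI-AML2 cells, read out with a cell viability assay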
Description: SANGER: Inhibition of human OCI-AML2 cell growth in a cell viability assay.

OCUB-M = assay type: functional, cell-based; details: Homo sapiens;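 note: growth inhibition of the cancer cell line, read out through a cell viability assay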
Description: SANGER: Inhibition of human OCUB-M cell growth in a cell viability assay.

OS-RC-2 = assay type: functional, cell-based, Homo sapiens; details: Homo sapiens, OS-RC-2;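 note: growth inhibition of human OS-RC-2 cells, measured by a cell viability assay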
Description: SANGER: Inhibition of human OS-RC-2 cell growth in a cell viability assay.

SK-MEL-2 = assay type: functional, cell-based, Homo sapiens; details: Homo sapiens, SK-MEL-2;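 note: growth inhibition of human SK-MEL-2 cells measured with a cell viability assay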
Description: SANGER: Inhibition of human SK-MEL-2 cell growth in a cell viability assay.

SNB-75 = assay type: functional, cell-based, Homo sapiens; details: Homo sapiens, SNB-75;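 note: cell viability assay measuring growth inhibition of human SNB-75 cells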
Description: SANGER: Inhibition of human SNB75 cell growth in a cell viability assay.

SW 954 = assay type: functional, cell-based, Homo sapiens; details: Homo sapiens, SW 954;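 note: growth inhibition of SW954 human cancer cells, read out as cell viability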
Description: SANGER: Inhibition of human SW954 cell growth in a cell viability assay.

8-MG-BA = assay type: functional, cell-based, Homo sapiens; details: Homo sapiens, 8-MG-BA;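 note: growth inhibition of 8-MG-BA cells, read out with a cell viability assay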
Description: SANGER: Inhibition of human 8-MG-BA cell growth in a cell viability assay.

A3-KAW = assay type: functional, cell-based, Homo sapiens; details: Homo sapiens, A3-KAW;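 note: growth inhibition of human A3-KAW cells, read out with a cell viability assay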
Description: SANGER: Inhibition of human A3-KAW cell growth in a cell viability assay.

A4-Fuk = assay type: functional, cell-based, Homo sapiens; details: Homo sapiens, A4-Fuk;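 note: growth inhibition of A4-Fuk cells, read out by a cell viability assay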
Description: SANGER: Inhibition of human A4-Fuk cell growth in a cell viability assay.

BB30-HNC = assay type: functional, cell-based, Homo sapiens; details: Homo sapiens, BB30-HNC;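 note: growth inhibition of the cultured cell line, read out by a cell viability assay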
Description: SANGER: Inhibition of human BB30-HNC cell growth in a cell viability assay.

BB65-RCC = assay type: functional, cell-based, Homo sapiens; details: Homo sapiens, BB65-RCC;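 note: growth inhibition of the cell line, measured with a cell viability assay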
Description: SANGER: Inhibition of human BB65-RCC cell growth in a cell viability assay.

TE-10 = assay type: functional, cell-based, Homo sapiens; details: Homo sapiens, TE-10;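 note: growth inhibition of TE-10 cells, measured by a cell viability assay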
Description: SANGER: Inhibition of human TE-10 cell growth in a cell viability assay.

TE-12 = assay type: functional, cell-based, Homo sapiens; details: Homo sapiens, TE-12;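 note: growth inhibition of TE-12 cells, read out by a cell viability assay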
Description: SANGER: Inhibition of human TE-12 cell growth in a cell viability assay.

no-11 = assay type: functional, cell-based, Homo sapiens; details: Homo sapiens;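 note: growth inhibition of human NO-11 cells, read out with a cell viability assay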
Description: SANGER: Inhibition of human no-11 cell growth in a cell viability assay.

COLO-668 = assay type: functional, cell-based, Homo sapiens; details: Homo sapiens, COLO-668
Description: SANGER: Inhibition of human COLO-668 cell growth in a cell viability assay.

Cc1cc(N2CCOCC2)cc2[nH]c(-c3c(NC[C@@H](O)c4cccc(Cl)c4)cc[nH]c3=O)nc12
IC50 (CW-2): > 5.12 µM
IC50 (Calu-6): > 5.12 µM
IC50 (EW-11): > 5.12 µM
IC50 (GB-1): 0.495 µM
IC50 (GCIY): 0.404 µM
IC50 (GT3TKB): > 5.12 µM
IC50 (HDLM-2): > 5.12 µM
IC50 (HOP-62): 0.936 µM
IC50 (HT): > 5.12 µM
IC50 (JVM-3): > 5.12 µM
IC50 (KARPAS-299): 3.85 µM
IC50 (KINGS-1): > 5.12 µM
IC50 (KNS-81-FD): > 5.12 µM
IC50 (KY821): > 5.12 µM
IC50 (LB1047-RCC): 0.642 µM
IC50 (LB2241-RCC): > 5.12 µM
IC50 (LB2518-MEL): > 5.12 µM
IC50 (LC-2-ad): 0.117 µM
IC50 (LS-123): > 5.12 µM
IC50 (LU-134-A): 1.6 µM
IC50 (MEG-01): 4.21 µM
IC50 (MHH-NB-11): > 5.12 µM
IC50 (MHH-PREB-1): > 5.12 µM
IC50 (MS-1): > 5.12 µM
IC50 (MV4-11): 0.206 µM
IC50 (NB6): > 5.12 µM
IC50 (NCI-H1355): 0.553 µM
IC50 (NCI-H1395): > 5.12 µM
IC50 (NCI-H209): > 5.12 µM
IC50 (NCI-H747): 0.68 µM
IC50 (NTERA-2-cl-D1): 0.257 µM
IC50 (OCI-AML2): 1.31 µM
IC50 (OCUB-M): > 5.12 µM
IC50 (OS-RC-2): 1.46 µM
IC50 (SK-MEL-2): > 5.12 µM
IC50 (SNB-75): 3.43 µM
IC50 (SW 954): 0.49 µM
IC50 (8-MG-BA): 3.93 µM
IC50 (A3-KAW): 1.93 µM
IC50 (A4-Fuk): 0.0578 µM
IC50 (BB30-HNC): 1.12 µM
IC50 (BB65-RCC): > 5.12 µM
IC50 (TE-10): 1.2 µM
IC50 (TE-12): 0.176 µM
IC50 (no-11): > 5.12 µM
IC50 (COLO-668): 1.19 µM

C=CC(=O)N1CCCC(Nc2nc(Nc3ccc(N(C)C(=O)CC)cc3)nc3[nH]cnc23)C1 (stereo not drawn)
IC50 (CW-2): > 10.2 µM
IC50 (Calu-6): > 10.2 µM
IC50 (EW-11): > 10.2 µM
IC50 (GB-1): > 10.2 µM
IC50 (GCIY): > 10.2 µM
IC50 (GT3TKB): > 10.2 µM
IC50 (HDLM-2): > 10.2 µM
IC50 (HOP-62): > 10.2 µM
IC50 (HT): > 10.2 µM
IC50 (JVM-3): > 10.2 µM
IC50 (KARPAS-299): > 10.2 µM
IC50 (KINGS-1): > 10.2 µM
IC50 (KNS-81-FD): > 10.2 µM
IC50 (KY821): > 10.2 µM
IC50 (LB1047-RCC): > 10.2 µM
IC50 (LB2241-RCC): > 10.2 µM
IC50 (LB2518-MEL): > 10.2 µM
IC50 (LC-2-ad): 7.27 µM
IC50 (LS-123): > 10.2 µM
IC50 (LU-134-A): > 10.2 µM
IC50 (MEG-01): > 10.2 µM
IC50 (MHH-NB-11): > 10.2 µM
IC50 (MHH-PREB-1): > 10.2 µM
IC50 (MS-1): > 10.2 µM
IC50 (MV4-11): 2.39 µM
IC50 (NB6): > 10.2 µM
IC50 (NCI-H1355): > 10.2 µM
IC50 (NCI-H1395): > 10.2 µM
IC50 (NCI-H209): > 10.2 µM
IC50 (NCI-H747): > 10.2 µM
IC50 (NTERA-2-cl-D1): > 10.2 µM
IC50 (OCI-AML2): > 10.2 µM
IC50 (OCUB-M): 2.1 µM
IC50 (OS-RC-2): > 10.2 µM
IC50 (SK-MEL-2): > 10.2 µM
IC50 (SNB-75): > 10.2 µM
IC50 (SW 954): 2.56 µM
IC50 (8-MG-BA): > 10.2 µM
IC50 (A3-KAW): > 10.2 µM
IC50 (A4-Fuk): > 10.2 µM
IC50 (BB30-HNC): 3.41 µM
IC50 (BB65-RCC): > 10.2 µM
IC50 (TE-10): > 10.2 µM
IC50 (TE-12): 2.35 µM
IC50 (no-11): > 10.2 µM
IC50 (COLO-668): > 10.2 µM

COc1ccc(N(C(=O)Oc2c(C)cccc2C)c2ccnc(Nc3ccc(N4CCN(C)CC4)cc3)n2)c(OC)c1
IC50 (CW-2): > 5.12 µM
IC50 (Calu-6): > 5.12 µM
IC50 (EW-11): > 5.12 µM
IC50 (GB-1): 1.16 µM
IC50 (GCIY): 1.23 µM
IC50 (GT3TKB): > 5.12 µM
IC50 (HDLM-2): > 5.12 µM
IC50 (HOP-62): 0.916 µM
IC50 (HT): > 5.12 µM
IC50 (JVM-3): > 5.12 µM
IC50 (KARPAS-299): > 5.12 µM
IC50 (KINGS-1): 1.97 µM
IC50 (KNS-81-FD): > 5.12 µM
IC50 (KY821): > 5.12 µM
IC50 (LB1047-RCC): 0.0759 µM
IC50 (LB2241-RCC): > 5.12 µM
IC50 (LB2518-MEL): 0.0467 µM
IC50 (LC-2-ad): 0.0203 µM
IC50 (LS-123): 4.36 µM
IC50 (LU-134-A): > 5.12 µM
IC50 (MEG-01): < 0.02 µM
IC50 (MHH-NB-11): > 5.12 µM
IC50 (MHH-PREB-1): > 5.12 µM
IC50 (MS-1): > 5.12 µM
IC50 (MV4-11): > 5.12 µM
IC50 (NB6): 1.7 µM
IC50 (NCI-H1355): 4.88 µM
IC50 (NCI-H1395): > 5.12 µM
IC50 (NCI-H209): > 5.12 µM
IC50 (NCI-H747): > 5.12 µM
IC50 (NTERA-2-cl-D1): 0.289 µM
IC50 (OCI-AML2): > 5.12 µM
IC50 (OCUB-M): > 5.12 µM
IC50 (OS-RC-2): 0.35 µM
IC50 (SK-MEL-2): > 5.12 µM
IC50 (SNB-75): 0.358 µM
IC50 (SW 954): 0.372 µM
IC50 (8-MG-BA): > 5.12 µM
IC50 (A3-KAW): > 5.12 µM
IC50 (A4-Fuk): > 5.12 µM
IC50 (BB30-HNC): 1.85 µM
IC50 (BB65-RCC): 4.7 µM
IC50 (TE-10): 4.28 µM
IC50 (TE-12): 0.888 µM
IC50 (no-11): > 5.12 µM
IC50 (COLO-668): > 5.12 µM
